The structures appear in SMILES notation. Starred links: 1 amine or outer side, 2 acyl side, 3 side chain; linkers in the order of their positions; H or OH if unused. Positions of bridges follow the written chain, without caps; N, C: chain ends. Residues, ends and D or L forms follow the SMILES beside them. Chains are numbered I, II in the order given. X1 = c1cc(C[*:1])ccc1COCc1ccc(C[*:2])cc1

Assay [1] has as its target T1, recombinant human MYC^353–437 protein (His6-MYC^353–437) (Homo sapiens, UniProt P01106).
T1 construct: recombinant human MYC^353–437 protein; made in house; host or cells: E. coli BL21(DE3), pET151-D-TOPO-cMyc vector
Nature of the assay: Fluorescence polarization direct binding of fluorescein-labeled CHDs to His6-MYC353-437. The conditions noted are these: FP direct binding; 15 nM FITC-labeled peptide; His6-MYC serial dilutions from 10 μM; 1X PBS, 1 mM DTT, 5% glycerol, 0.1% pluronic acid, pH 6.7; 25 °C; triplicate; MYC aggregates above 5 μM; read-out: Binding Affinity MYC^353-436, Kd. As to the method:
(§1) pET151-D-TOPO-cMyc vector was kindly provided by Dr. Edward Prochownik from the
(§2) Department of Pediatrics at UPMC Children’s Hospital of Pittsburgh. Expression and purification
(§3) of Myc353-437 were performed using an established protocol with minor modifications.7 BL21(DE3)
(§4) cells were used to express recombinant Myc353-437 protein. Bacteria were grown at 37 °C to OD600
(§5) of 0.8 followed by 1 mM IPTG induction and 16-18h growth at RT. Cells were harvested via
(§6) centrifugation at 4,000 rpm at 4 °C and the pellet was resuspended in 10 mL of lysis buffer (8 M
(§7) urea, 100 mM NaH2PO4, 10 mM Tris HCl, pH 8) supplemented with protease inhibitor cocktail
(§8) (PierceTM Protease Inhibitor Tablets) and benzonase nuclease. Suspensions were sonicated on
(§9) ice using a Branson Cell Disruptor 200 and centrifuged at 12,000 rpm for 45 min at 4 °C. Clarified
(§10) lysate was applied to a column containing pre-equilibrated HisPur Ni-NTA Superflow Agarose
(§11) (ThermoFisher Scientific) for overnight at 4 °C. The resin beads were washed with 10 mL of
(§12) additional lysis buffer followed by three washes of 10 mL wash buffer (8 M urea, 100 mM
NaH2PO4, 10 mM Tris HCl, 10 mM imidazole). The target protein was eluted with elution buffer (8
M urea, 100 mM NaH2PO4, 10 mM Tris HCl, 250 mM imidazole) and buffer exchanged into 150
mM NaCl, 50 mM Tris HCl, 5% glycerol, pH 6.7. Protein was concentrated by ultra-filtration (3000
MWCO; Amicon Ultra-15 Centrifugal Filter units from EMD Millipore) followed by TEV cleavage
(1:100 w/w of protease to target protein) in 150 mM NaCl, 50 mM Tris HCl, 5% glycerol, pH 6.7
for 24 hrs at 4 °C. The cleaved protein is further purified by reverse-phase HPLC (gradient 10-60
acetonitrile/water with 0.1% TFA over 35 min) to remove TEV protease and un-cleaved protein.
Purified Myc353-437 was lyophilized and stored at -20 °C. Myc353-437 identity was characterized by
Fluorescence Polarization Binding Assay
The relative affinities of FITC-CHDMax-1 to His6-Myc353-436 and full-length His6-Max were
determined using fluorescence polarization-based direct binding assay. The polarization
experiments were performed using a DTX 880 Multimode Detector (Beckman) at 25 °C with
excitation and emission wavelengths of 485 and 525 nm, respectively. Each polarization
experiment was performed in a 96-well round bottom plate (Greiner) in assay buffer: 1X PBS, 1
mM DTT, 5% glycerol, 0.1% pluronic acid, pH 6.7. The binding affinity (KD) values reported for
each peptide are from experiments performed in triplicate. Raw values were fit to a sigmoidal
dose-response nonlinear regression model in GraphPad Prism 6.0.
All binding experiments with FITC-labeled peptides to His6-Myc353-436 or His6-Max were performed
under the same conditions. Briefly, serial dilutions of His6-Myc353-436 and His6-Max were made
from 10 μM into 15 nM of FITC-labeled peptide in assay buffer. KD was determined using the
KD1 = (RT*(1-FSB) + LST*FSB2)/FSB-LST
RT = Total concentration of His6-Myc353-436 or His6-Max
LST = Total concentration of FITC-labeled peptide
FSB = Fraction of bound FITC-labeled peptide
(Fluorescence polarisation rises when a labelled molecule tumbles more slowly, as on binding a larger partner.)

A further assay deals with T2, MYC/MAX complex (Homo sapiens, UniProt P01106).
T2 construct: we used recombinant MYC protein (MYC^353–437); His6 (N)
As to the kind of experiment: Fluorescence polarization direct binding to the MYC/MAX complex. The conditions noted are these: FP direct binding of fluorescein-labeled peptide to preformed MYC/MAX heterodimer; read-out: CHD^Max-1 Binding Affinity, Kd (MYC/MAX). Here is the method: as §1, §2, §3, §4, §5, §6, §7, §8, §9, §10, §11, §12
NaH2PO4, 10 mM Tris HCl, 10 mM imidazole). The target protein was eluted with elution buffer (8 […]
Fluorescence Polarization Binding Assay […]
determined using fluorescence polarization-based direct binding assay. […]
from 10 μM into 15 nM of FITC-labeled peptide in assay buffer. KD was determined using the […]

T2 sequence (P01106 368-452): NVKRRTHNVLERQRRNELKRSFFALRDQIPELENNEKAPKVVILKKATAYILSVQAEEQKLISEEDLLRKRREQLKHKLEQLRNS
T2 sequence (P61244 whole entry partner): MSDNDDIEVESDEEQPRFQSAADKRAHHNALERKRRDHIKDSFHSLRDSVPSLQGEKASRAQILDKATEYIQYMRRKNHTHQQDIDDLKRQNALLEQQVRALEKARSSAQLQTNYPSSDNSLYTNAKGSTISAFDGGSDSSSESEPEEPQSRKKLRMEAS
T1 sequence (P01106 368-452): as the sequence (P01106 368-452) above

With `CC[C@H](C)[C@H](NC(=O)[C@H](CCCCN)NC(=O)[C@H](CCC(=O)O)NC(=O)[C@H](CCCNC(=N)N)NC(=O)[C@H](CC(C)C)NC(C)=O)C(=O)N[C@@H](C)C(=O)N[C@H](C(=O)N[C@@H](CC(C)C)C(=O)N[C@@H](CCC(N)=O)C(=O)N[C@@H](Cc1c[nH]c2ccccc12)C(=O)N[C@@H](CSCc1ccc(COCc2ccc(CSC[C@H](NC(=O)[C@H](CC(C)C)NC(=O)[C@H](CCC(=O)O)NC(=O)[C@H](CCC(=O)O)NC(=O)[C@@H](NC(=O)[C@H](CCC(=O)O)NC(=O)[C@H](Cc3c[nH]c4ccccc34)NC(=O)[C@H](CCC(N)=O)NC(=O)[C@H](Cc3c[nH]cn3)NC(=O)[C@@H](NC(=O)[C@H](CCC(=O)O)NC(=O)[C@H](CC(N)=O)NC(=O)[C@H](CCCCN)NC(=O)[C@H](CCCNC(=N)N)NC(=O)[C@H](CCCNC(=N)N)NC(=O)[C@H](CC(C)C)NC(C)=O)[C@@H](C)O)[C@@H](C)CC)C(N)=O)cc2)cc1)C(=O)N[C@H](C(=O)N[C@@H](CCC(=O)O)C(=O)N[C@@H](CCC(=O)O)C(=O)N[C@@H](CC(C)C)C(=O)N[C@@H](CCCNC(=N)N)C(=O)N[C@@H](CCCCN)C(N)=O)[C@@H](C)CC)[C@@H](C)O` [CHD^Max-1] (I: Ac-LREKIATLQWCIEELRK-NH2 / II: Ac-LRRKNETHQWEIEELC-NH2; linker I:11-II:16 via X1), the results for the Kd (in assay [1]; on MYC/MAX complex) were 350 ± 17 nM and 460 ± 150 nM, respectively.

(Values after paper PMC12022973, “Proteomimetic Strategy for the Modulation of Intrinsically Disordered Protein MYC” (Journal of the American Chemical Society, 2025).)
